Reference: US20230049231A1 (priority 2019, published 2023)

Key:
hERG channel = biological target: T1, hERG channel (Homo sapiens, UniProt Q12809); assay: hERG electrophysiology, automated whole-cell patch clamp (Patchliner); assay type: cell-based
T1 construct: expressed in transfected cells
Protocol: This assay is used to evaluate the disclosed compounds' inhibition activities against the hERG channel.
CHO-K1 cells stably expressing hERG were grown in Ham's F-12 Medium with glutamine containing 10% heat-inactivated FBS, 1% penicillin/streptomycin, hygromycin (100 μg/ml) and G418 (100 μg/ml). Cells were grown in culture flasks at 37° C. in a 5% CO2-humidified incubator.
The cells were bathed in an extracellular solution containing 140 mM NaCl, 4 mM KCl, 2 mM CaCl2), 1 mM MgCl2, 5 mM glucose, and 10 mM HEPES; pH adjusted to 7.4 with NaOH; 295-305 mOsm. The internal solution contained 50 mM KCl, 10 mM NaCl, 60 mM KF, 20 mM EGTA, and 10 mM HEPES; pH adjusted to 7.2 with KOH; 285 mOsm. All compounds were dissolved in DMSO at 30 mM. Compound stock solutions were freshly diluted with external solution to concentrations of 30 nM, 100 nM, 300 nM, 1 μM, 3 μM, 10 μM, 30 μM and 100 μM. The highest content of DMSO (0.3%) was present in 100 μM.
The voltage protocol (see Table 3) was designed to simulate voltage changes during a cardiac action potential with a 300 ms depolarization to +20 mV (analogous to the plateau phase of the cardiac action potential), a repolarization for 300 ms to −50 mV (inducing a tail current) and a final step to the holding potential of −80 mV. The pulse frequency was 0.3 Hz. Control (compound-free) and compound pulse trains for each compound concentration applied contained 70 pulses.
Whole-cell current recordings and compound application were enabled by means of an automated patch clamp platform Patchliner (Nanion). EPC 10 patch clamp amplifier (HEKA) along with Patchmaster software (HEKA Elektronik Dr. Schulze GmbH) was used for data acquisition. Data were sampled at 10 kHz without filtering. Increasing compound concentrations were applied consecutively to the same cell without washouts in between.
AUC and PEAK values were obtained with Patchmaster (HEKA Elektronik Dr. Schulze GmbH). To determine IC50 the last single pulse in the pulse train corresponding to a given compound concentration was used. Obtained AUC and PEAK values in the presence of compound were normalized to control values in the absence of compound. Using Origin (OridinLab), IC50 was derived from data fit to Hill equation: Icompound/Icontrol=(100-A)/(1+([compound]/IC50)nH)+A, where IC50 is the concentration at which current inhibition is half-maximal, [compound] is the applied compound concentration, A is the fraction of current that is not blocked and nH is the Hill coefficient.

Kv1.3 potassium channel = biological target: T2, Kv1.3 potassium channel (Homo sapiens, UniProt P22001); assay: Kv1.3 potassium channel blocker activity, automated whole-cell patch clamp (Patchliner); assay type: cell-based
T2 construct: expressed in transfected cells
How it was run: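 IC50 came from Hill-equation fits of peak and AUC currents from the final pulse at each concentration, normalized to compound-free control. Compounds applied consecutively at 30 nM to 100 μM (up to 0.3% DMSO) to Kv1.3-expressing CHO-K1 cells, P/4 leak subtraction. Pulses were +40 mV, 100 ms, from −90 mV holding, at 0.1 Hz on Patchliner.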

[1] = hERG channel, whole-cell patch clamp
[2] = Kv1.3 potassium channel, whole-cell patch clamp
[3] = CHO-K1 cells stably expressing hERG, +20 mV 300 ms, -50 mV 300 ms tail current, 0.3 Hz
[4] = CHO-K1 cells stably expressing Kv1.3, 100 ms pulses from -90 mV to +40 mV, 0.1 Hz

T1 sequence (Q12809 whole entry): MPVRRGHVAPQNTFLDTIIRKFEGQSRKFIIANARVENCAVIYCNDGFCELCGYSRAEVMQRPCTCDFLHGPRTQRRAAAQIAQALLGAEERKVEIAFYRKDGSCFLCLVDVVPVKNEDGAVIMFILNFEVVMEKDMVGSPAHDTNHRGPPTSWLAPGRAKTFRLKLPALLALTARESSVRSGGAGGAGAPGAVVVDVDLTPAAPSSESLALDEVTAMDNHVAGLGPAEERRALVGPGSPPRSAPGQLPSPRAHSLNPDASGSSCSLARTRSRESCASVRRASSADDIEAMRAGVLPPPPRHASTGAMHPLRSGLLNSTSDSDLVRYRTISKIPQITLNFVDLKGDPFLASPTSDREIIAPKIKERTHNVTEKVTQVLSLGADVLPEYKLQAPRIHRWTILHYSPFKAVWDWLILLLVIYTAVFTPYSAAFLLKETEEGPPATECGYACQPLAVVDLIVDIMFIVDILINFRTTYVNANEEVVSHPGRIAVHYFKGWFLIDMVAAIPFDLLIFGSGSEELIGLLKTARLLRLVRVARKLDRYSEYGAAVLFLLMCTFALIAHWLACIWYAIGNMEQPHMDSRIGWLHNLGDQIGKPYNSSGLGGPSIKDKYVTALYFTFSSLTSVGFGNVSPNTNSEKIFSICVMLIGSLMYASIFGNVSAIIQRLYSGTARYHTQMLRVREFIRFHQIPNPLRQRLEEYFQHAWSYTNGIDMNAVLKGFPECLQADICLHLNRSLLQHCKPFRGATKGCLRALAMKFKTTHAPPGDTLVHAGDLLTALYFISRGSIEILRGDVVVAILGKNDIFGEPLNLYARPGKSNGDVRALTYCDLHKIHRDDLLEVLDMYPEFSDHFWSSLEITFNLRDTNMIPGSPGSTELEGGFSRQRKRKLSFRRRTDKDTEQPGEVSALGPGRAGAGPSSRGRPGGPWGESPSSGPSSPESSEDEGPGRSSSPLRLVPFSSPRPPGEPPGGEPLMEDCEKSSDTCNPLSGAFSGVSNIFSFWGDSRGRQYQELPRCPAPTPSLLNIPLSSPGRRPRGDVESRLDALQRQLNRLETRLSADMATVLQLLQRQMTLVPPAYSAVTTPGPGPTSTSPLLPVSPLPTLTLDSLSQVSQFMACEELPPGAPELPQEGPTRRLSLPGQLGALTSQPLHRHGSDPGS
T2 sequence (P22001 whole entry): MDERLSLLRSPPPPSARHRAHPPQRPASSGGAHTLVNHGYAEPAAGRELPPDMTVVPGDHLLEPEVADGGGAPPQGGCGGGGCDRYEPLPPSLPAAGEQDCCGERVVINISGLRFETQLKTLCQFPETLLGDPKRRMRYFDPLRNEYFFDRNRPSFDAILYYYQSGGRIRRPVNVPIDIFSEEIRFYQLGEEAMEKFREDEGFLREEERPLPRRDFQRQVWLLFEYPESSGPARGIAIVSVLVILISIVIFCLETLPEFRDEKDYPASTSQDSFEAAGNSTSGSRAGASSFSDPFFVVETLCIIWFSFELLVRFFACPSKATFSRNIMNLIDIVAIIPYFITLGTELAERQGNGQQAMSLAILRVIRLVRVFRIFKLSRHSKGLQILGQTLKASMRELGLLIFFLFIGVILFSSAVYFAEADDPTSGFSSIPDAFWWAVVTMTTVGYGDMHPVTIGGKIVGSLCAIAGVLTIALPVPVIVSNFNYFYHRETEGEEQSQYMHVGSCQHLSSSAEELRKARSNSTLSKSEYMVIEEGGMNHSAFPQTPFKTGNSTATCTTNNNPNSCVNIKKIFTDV

| IC50 (Kv1.3 potassium channel; [2]) | IC50 (Kv1.3 potassium channel; [4]) | SMILES | IC50 (hERG channel; [1]) | IC50 (hERG channel; [3]) |
| --- | --- | --- | --- | --- |
| < 1 µM |  | CC[C@@H](O)CC(=O)N1CC(=O)N2C[C@@H](c3c(O)ccc(Cl)c3Cl)C[C@H]2C1 [Compound 69, (7R,8aS)-7-(2,3-dichloro-6-hydroxyphenyl)-2-[(3R)-3-hydroxypentanoyl]-hexahydropyrrolo [1,2-a]pyrazin-4-one] | > 30 µM |  |
| < 1 µM |  | NC(=O)[C@H]1CC(=O)N2C[C@@H](c3c(O)ccc(Cl)c3Cl)C[C@H]2C1 (single isomer, unassigned) [Compound 231] | > 30 µM |  |
|  | < 1 µM | O=C(CCO)N1CC(=O)N2C[C@@H](c3c(O)ccc(Cl)c3Cl)C[C@H]2C1 [Compound 17, (7R,8aS)-7-(2,3-dichloro-6-hydroxyphenyl)-2-(3-hydroxypropanoyl)hexa-hydropyrrolo[1,2-a]pyrazin-4(1H)-one] |  | > 30 µM |
| < 1 µM |  | Nc1ccnc(N2CC(=O)N3C[C@@H](c4c(O)ccc(Cl)c4Cl)C[C@H]3C2)c1 [Compound 171, (7R,8aS)-2-(4-aminopyridin-2-yl)-7-(2,3-dichloro-6-hydroxyphenyl)-hexahydropyrrolo[1,2-a]pyrazin-4-one] | < 10 µM |  |
| < 1 µM |  | O=C1OC[C@@H]2C[C@H](c3c(O)ccc(Cl)c3Cl)CN12 [Compound 251, (6R,7aS)-6-(2,3-dichloro-6-hydroxyphenyl)-tetrahydro-1H-pyrrolo[1,2-c][1,3]oxazol-3-one] | < 30 µM |  |
| < 1 µM |  | O=C(C(CO)CO)N1CC(=O)N2C[C@@H](c3c(O)ccc(Cl)c3Cl)C[C@H]2C1 [Compound 65, (7R,8aS)-7-(2,3-dichloro-6-hydroxyphenyl)-2-[3-hydroxy-2-(hydroxymethyl)propanoyl]-hexa-hydropyrrolo[1,2-a]pyrazin-4-one] | > 30 µM |  |
| < 1 µM |  | O=C1CN([C@H]2CCNC2)C[C@@H]2C[C@H](c3c(O)ccc(Cl)c3Cl)CN12 [Compound 142, (7R,8aS)-7-(2,3-dichloro-6-hydroxyphenyl)-2-[(3S)-pyrrolidin-3-yl]-hexahydropyrrolo [1,2-a]pyrazin-4-one] | > 30 µM |  |
| < 1 µM |  | O=C1CN([C@@H]2CCNC2)C[C@@H]2C[C@H](c3c(O)ccc(Cl)c3Cl)CN12 [Compound 143, (7R,8aS)-7-(2,3-dichloro-6-hydroxyphenyl)-2-[(3R)-pyrrolidin-3-yl]-hexahydropyrrolo [1,2-a]pyrazin-4-one] | > 30 µM |  |
| < 1 µM |  | CNCC1OC(=O)N2C[C@@H](c3c(O)ccc(Cl)c3Cl)C[C@@H]12 (stereo partly drawn) [Compound 281, (6R,7aS)-6-(2,3-dichloro-6-hydroxyphenyl)-1-[(methylamino)methyl]-tetrahydro-1H-pyrrolo[1,2-c][1,3]oxazol-3-one] | < 30 µM |  |
| < 1 µM |  | O=C1CN(C2CN(CCO)C2)C[C@@H]2C[C@H](c3c(O)ccc(Cl)c3Cl)CN12 [Compound 134, (7R,8aS)-7-(2,3-dichloro-6-hydroxyphenyl)-2-[1-(2-hydroxyethyl)azetidin-3-yl]-hexahydropyrrolo [1,2-a]pyrazin-4-one] | > 30 µM |  |
| < 1 µM |  | O=C1CN(C[C@H]2COCCN2)C[C@@H]2C[C@H](c3c(O)ccc(Cl)c3Cl)CN12 [Compound 145, (7R,8aS)-7-(2,3-dichloro-6-hydroxyphenyl)-2-[(3S)-morpholin-3-ylmethyl]-hexahydropyrrolo [1,2-a]pyrazin-4-one] | < 30 µM |  |
| < 1 µM |  | O=C(N1CC[C@@H](O)C1)N1CC(=O)N2C[C@@H](c3c(O)ccc(Cl)c3Cl)C[C@H]2C1 [Compound 101, (7R,8aS)-7-(2,3-dichloro-6-hydroxyphenyl)-2-[(3R)-3-hydroxypyrrolidine-1-carbonyl]-hexahydropyrro[1,2-a]pyrazine-4-one] | > 30 µM |  |
|  | < 1 µM | O=C1[C@@H](CO)NC[C@@H]2C[C@H](c3c(O)ccc(Cl)c3Cl)CCN12 (relative stereo) [Compound 28, (8R,9aS)-rel-8-(2,3-dichloro-6-hydroxyphenyl)-3-((3R)-hydroxymethyl-octahydropyrido[1,2-a]pyrazin-4-one trifluoroacetic acid] |  | > 30 µM |
